Measured values reported in publication PMC5444695, “CM363, a novel naphthoquinone derivative which acts as multikinase modulator and overcomes imatinib resistance in chronic myelogenous leukemia” (Oncotarget, 2016).
Entries after “also recorded” stand apart in the source; their conditions may differ.

Experiments:
Raw cells = test: MTT cell viability assay, Raw cells; format: cell-based; settings: Mus musculus, 48 h, read-out: IC50 (μM) Mean ± SD
Description: (§1) All cell lines were purchased from the American Type Culture Collection (ATCC). The cell lines were growth at 37°C under 5% CO2 under humidified atmosphere. The cell lines K562 (derived from patients during the blast crisis phase of CML and IM sensitive), K562-R (IM resistance human CML), KmycBT15I (KBTI; IM resistant human CML, expressing the Bcr-Abl […] mutant), HEL (human erythroleukemia), HL60 (human acute myeloid leukemia), MOLM-13 (human acute myeloid leukemia), MV4.11 (human acute monocytic leukemia), HCT-15 (human colorectal adenocarcinoma), PC3 (human prostate cancer), MCF7 (human breast cancer), NCTC3749 (mouse lymphoma) as well as the MRC.5 cells (non-malignant human lung fibroblasts) were maintained in RPMI-1640 medium. The cell lines L1210 (mouse lymphocytic leukemia cells), Raw (mouse macrophage), HeLa (human epithelial cervix cancer), U-2 OS (human osteosarcoma), MG63 (human osteosarcoma) and T47D (human breast cancer adenocarcinoma) were maintained in DMEM. HEK293 cells stably expressing the GH receptor (HEKGHR) were maintained in DMEM-F12 medium. […]
(§2) Cells were seeded in 96-well plates (BD Falcon, France) at exponential growth density (5000–20000 cells/well) and treated with vehicle (0.05% DMSO) or compound (0.01 to 10 μM) for 48–72 h. […] Optical density was measured at 595 nm with the iMark Microplate Reader (BioRad, CA, USA).

MV4.11 cells = test: MTT cell viability assay, MV4.11 cells; format: cell-based; settings: Homo sapiens, MV4.11, 48 h, read-out: IC50 (μM) Mean ± SD
Description: as §1, §2

PC3 cells = test: MTT cell viability assay, PC3 cells; format: cell-based; settings: Homo sapiens, PC-3, PC3, 48 h, read-out: IC50 (μM) Mean ± SD
Description: as §1, §2

MCF7 cells = test: MTT cell viability assay, MCF7 cells; format: cell-based; settings: Homo sapiens, MCF7, 48 h, read-out: IC50 (μM) Mean ± SD
Description: as §1, §2

L1210 cells = test: MTT cell viability assay, L1210 cells; format: cell-based; settings: Mus musculus, L1210, 48 h, read-out: IC50 (μM) Mean ± SD
Description: as §1, §2

MRC.5 cells = test: MTT cell viability assay, MRC.5 cells; format: cell-based; settings: Homo sapiens, MRC5, MRC.5 non-malignant lung fibroblasts, 48 h, read-out: IC50 (μM) Mean ± SD
Description: as §1, §2

K562-R cells = test: MTT cell viability assay, IM-resistant K562-R cells; format: cell-based, human; settings: 72 h, MTT (Fig 10D)
Description: All cell lines were purchased from the American Type Culture Collection (ATCC). The cell lines were growth at 37°C under 5% CO2 under humidified atmosphere. […] The cell lines L1210 (mouse lymphocytic leukemia cells), Raw (mouse macrophage), HeLa (human epithelial cervix cancer), U-2 OS (human osteosarcoma), MG63 (human osteosarcoma) and T47D (human breast cancer adenocarcinoma) were maintained in DMEM. HEK293 cells stably expressing the GH receptor (HEKGHR) were maintained in DMEM-F12 medium. The human breast cancer cell line SKBR3 was maintained in McCoy’s 5A medium. Cell culture medium was supplemented with 10% FBS, L-glutamine (2 mM) and PEST. In addition, the cell culture medium for T47D was supplemented with 1 mM NaPyr and 10 mM HEPES. Human peripheral blood mononuclear cells (PBMC) were isolated from heparin-anticoagulated blood of healthy volunteers by centrifugation with Ficoll-Paque Plus (Amersham Biosciences).
The mitochondrial metabolization of the tetrazolium salt 3-(4,5-methyltiazol-2yl-)-2,5diphenyl-tetrazolium bromide] (MTT) (Applichen, Germany) was used as indicator of cell viability. Optical density was measured at 595 nm with the iMark Microplate Reader (BioRad, CA, USA).

K562 tumor xenografts = K562 tumor xenografts in NOD-SCID mice; format: in vivo; settings: CM363 10 mg/kg i.p., 25 days, P = 0.004 day 4, P = 0.007 day 25
Description: Six weeks old female athymic mice (NOD-SCID), were purchased from Charles River River (Barcelona, Spain), and were housed in a specifically designed pathogen-free isolation facility as reported previously. […] The vehicle and CM363 treatments were administered via intraperitoneal injection (i.p.) every day except Saturday and Sunday. […] The study was conducted over a 25 days period. Caliper measurements of the tumor diameters were performed twice per week, and the tumor volume was estimated as the volume of an ellipse using the following formula: V = 4/3n × (a/2) × (b/2)^2, where a and b correspond to the longest and shortest diameter, respectively. Mice were sacrificed when their tumor diameters reached 2 cm, or when they became moribund. Differences in tumor volumes between control and treated group were evaluated using the Mann-Whitney test.

[1] = Body weight of xenografted mice; format: in vivo; settings: CM363 10 mg/kg i.p., 25 days
Description: Six weeks old female athymic mice (NOD-SCID), were purchased from Charles River River (Barcelona, Spain), and were housed in a specifically designed pathogen-free isolation facility as reported previously. The mice were subcutaneously inoculated into the right flank with 2.5 × l0^6 K562 cells in 100 μL of RPMI-1640 medium and 100 μL of Matrigel. When tumors became palpable, mice were randomized into three groups (n = 8 per group); the control group (receiving vehicle alone- DMSO: PEG-400: sterile water at 5:25:70 (w/v)), the group receiving CM363 10 mg/Kg or the group receiving the positive control IM 40 mg/kg. The vehicle and CM363 treatments were administered via intraperitoneal injection (i.p.) every day except Saturday and Sunday. While IM was administered orally using the same schedule. The study was conducted over a 25 days period. Caliper measurements of the tumor diameters were performed twice per week, and the tumor volume was estimated as the volume of an ellipse using the following formula: V = 4/3n × (a/2) × (b/2)^2, where a and b correspond to the longest and shortest diameter, respectively. Mice were sacrificed when their tumor diameters reached 2 cm, or when they became moribund. Differences in tumor volumes between control and treated group were evaluated using the Mann-Whitney test.

KBTI cells = test: Viability of IM-resistant KBTI cells; format: cell-based; settings: IM-resistant KBTI human cells, data not shown
Description: as §1, §2

N#Cc1ccc(C2C3=C(CCCC3=O)OC3=C2C(=O)c2ccccc2C3=O)cc1 (centres unmarked) [CM363, 4-(1,6,11-trioxo-2,3,4,6,11,12-hexahydro-1H-benzo[b]xanthen-12-yl)benzonitrile]
IC50 (Raw cells): 0.1 ± 0.2 µM | IC50 (MV4.11 cells): 1.2 ± 1.1 µM | IC50 (PC3 cells): 1.5 ± 1 µM | IC50 (MCF7 cells): 1.7 ± 1.1 µM | IC50 (L1210 cells): 3.4 ± 0.4 µM | IC50 (MRC.5 cells): 3.5 µM | lowest concentration at which inhibition was detected (K562-R cells): 0.3 µM | IC50 (K562-R cells; Homo sapiens, K-562R): ~600 nM | tumor growth (tumor volume) versus control group (K562 tumor xenografts): suppressed the growth; also recorded: pronounced, and statistically significant reduction | body weight [1]: no significant body weight reduction | sensitivity of KBTI cells (KBTI cells): partial resistance
